ChEMBL document CHEMBL5385882, “Rational design and appraisal of selective Cdc2-Like kinase 1 (Clk1) inhibitors as novel autophagy inducers for the treatment of acute liver injury (ALI)” (Eur J Med Chem, 2023)
pIC50: −log10 of the molar value. The source made the active and inactive calls. No cut-off for these calls is given here.

Assays:
[1] = target: T1, Dual specificity protein kinase CLK1 (Homo sapiens, UniProt P49759); assay: Inhibition of human 130-end recombinant CLK1 assessed as remaining activity using ERMRPRKRQGSVR as substrate at 100 nM by [gamma-32P]ATP binding based scintillation counting based analysis relative to control
Target sequence in this assay (P49759 whole entry, looked up): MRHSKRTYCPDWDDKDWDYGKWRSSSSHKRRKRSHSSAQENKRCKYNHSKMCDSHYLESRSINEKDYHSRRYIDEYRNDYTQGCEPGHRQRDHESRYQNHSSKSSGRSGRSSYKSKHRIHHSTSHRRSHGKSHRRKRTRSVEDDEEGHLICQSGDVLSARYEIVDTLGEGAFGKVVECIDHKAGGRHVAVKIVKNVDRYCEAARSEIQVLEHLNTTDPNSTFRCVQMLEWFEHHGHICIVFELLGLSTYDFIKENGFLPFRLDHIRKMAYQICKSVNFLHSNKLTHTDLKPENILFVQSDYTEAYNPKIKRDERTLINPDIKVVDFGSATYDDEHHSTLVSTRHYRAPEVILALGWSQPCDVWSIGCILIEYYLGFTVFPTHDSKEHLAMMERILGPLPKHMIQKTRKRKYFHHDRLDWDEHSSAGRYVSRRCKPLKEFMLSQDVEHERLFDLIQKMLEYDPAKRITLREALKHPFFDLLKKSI

[2] = target: T2, Dual specificity tyrosine-phosphorylation-regulated kinase 1A (Homo sapiens, UniProt Q13627); assay: Inhibition of human full length recombinant DYRK1A assessed as remaining activity using RRRFRPASPLRGPP as substrate at 100 nM by [gamma-32P]ATP binding based scintillation counting based analysis relative to control
[3] = target: T1, Dual specificity protein kinase CLK1; assay: Inhibition of human 130-end recombinant CLK1 assessed as remaining activity using ERMRPRKRQGSVR as substrate by [gamma-32P]ATP binding based scintillation counting based analysis
Target sequence in this assay (P49759 whole entry): as the sequence (P49759 whole entry, looked up) above

[4] = target: T2, Dual specificity tyrosine-phosphorylation-regulated kinase 1A; assay: Inhibition of human full length recombinant DYRK1A assessed as remaining activity using RRRFRPASPLRGPP as substrate by [gamma-32P]ATP binding based scintillation counting based analysis
[5] = species: Homo sapiens; assay: Selectivity index, ratio of IC50 for inhibition of human full length recombinant DYRK1A to IC50 for inhibition of human 130-end recombinant CLK1
[6] = Metabolic stability in human liver microsomes assessed as half life at 10 uM incubated for 5 mins in the presence of NADPH-generating system by LC-MS/MS analysis; type: ADME, Microsome
[7] = Metabolic stability in human liver microsomes assessed as clearance at 10 uM incubated for 5 mins in the presence of NADPH-generating system by LC-MS/MS analysis; type: ADME, Microsome
[8] = target: Dual specificity protein kinase CLK1 (Mus musculus) (UniProt P22518); assay: Inhibition of Clk1 in mouse BNL CL.2 cells assessed as redistribution of serine/arginine (SR) proteins from nucleoplasmic (active form) to nuclear speckles (storage form) at 10 uM incubated for 24 hrs by immunofluorescence assay; type: cell-based
Dual specificity protein kinase CLK1 (Mus musculus), sequence (P22518 whole entry, looked up): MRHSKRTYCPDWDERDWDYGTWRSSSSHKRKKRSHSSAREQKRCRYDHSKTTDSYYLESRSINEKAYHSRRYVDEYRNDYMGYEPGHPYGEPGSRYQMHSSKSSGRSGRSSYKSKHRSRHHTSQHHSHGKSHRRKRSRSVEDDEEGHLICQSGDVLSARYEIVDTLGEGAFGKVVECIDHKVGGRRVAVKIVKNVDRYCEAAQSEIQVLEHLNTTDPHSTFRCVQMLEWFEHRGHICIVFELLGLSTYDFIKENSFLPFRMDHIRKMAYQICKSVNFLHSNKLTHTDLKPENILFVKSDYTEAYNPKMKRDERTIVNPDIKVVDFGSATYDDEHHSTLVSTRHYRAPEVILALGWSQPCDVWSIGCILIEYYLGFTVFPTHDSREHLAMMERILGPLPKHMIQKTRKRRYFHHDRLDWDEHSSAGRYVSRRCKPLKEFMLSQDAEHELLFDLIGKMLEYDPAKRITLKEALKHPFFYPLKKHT

| Compound | Activity [1] [%] | Activity [2] [%] | pIC50 [3] | pIC50 [4] | Selectivity Index [5] | half-life at 10 µM [6] [min] | CLH [7] [mL/min/g] | inhibition [8] |
| --- | --- | --- | --- | --- | --- | --- | --- | --- |
| COc1ccc(-c2cnc3ccc(NCc4ccc(F)cc4)cn23)cc1 | 91 | 110 | – | – | – | – | – | – |
| Fc1ccc(/C=N/c2cnc3[nH]cc(-c4cncc(F)c4)c3c2)cc1 | 70 | 86 | 6.29 | 5.87 | – | – | – | – |
| COc1cc(Cl)ccc1C(=O)Nc1cnc2[nH]cc(-c3cccnc3)c2c1 | 17 | 84 | 7.60 | 5.69 | 81.4 | – | – | – |
| Fc1cc(F)cc(CNc2cnc3[nH]cc(-c4ccc5ccccc5c4)c3c2)c1 | 80 | 106 | 6.32 | < 5.30 | – | – | – | – |
| CN1CCN(c2ccc(CNc3cnc4[nH]cc(-c5cncc(F)c5)c4c3)cc2)CC1 | 19 | 99 | 7.38 | 5.22 | 142 | 17.5 | 79.2 | – |
| COc1cncc(-c2c[nH]c3ncc(NCc4ccc(F)cc4)cc23)c1 | 6 | 88 | 7.82 | 5.63 | 156 | 20.3 | 76.8 | – |
| COc1cncc(-c2c[nH]c3ncc(NCc4cccc(F)c4)cc23)c1 | 2 | 89 | 7.77 | 5.69 | 119 | 19.5 | 80.4 | – |
| CC(C)(C)c1cccc(CNc2cnc3[nH]cc(-c4cccnc4)c3c2)c1 | 27 | 103 | 7.35 | 6.01 | 21.9 | – | – | – |
| COc1ccc(-c2cnc3ccc(NCc4cc(F)cc(F)c4)cn23)cc1 | 105 | 91 | 6.24 | 6.33 | 0.8 | – | – | – |
| COc1cncc(-c2c[nH]c3ncc(NC(=O)c4ccc(F)cc4)cc23)c1 | 13 | 81 | 7.62 | 5.69 | 85.8 | 115 | 13.8 | – |
| NC(=O)c1cccc(-c2c[nH]c3ncc(NCc4cc(F)cc(F)c4)cc23)c1 | 89 | 105 | 6.12 | < 5.30 | – | – | – | – |
| COc1cc(Cl)ccc1C(=O)Nc1cnc2[nH]cc(-c3cncc(F)c3)c2c1 | 20 | 92 | 7.18 | 5.40 | 60.5 | > 120 | < 12 | – |
| Nc1cccc(-c2c[nH]c3ncc(NCc4cc(F)cc(F)c4)cc23)c1 | 28 | 88 | 7.18 | 6.41 | 5.9 | – | – | – |
| Fc1cc(F)cc(CNc2cnc3[nH]cc(-c4cccnc4)c3c2)c1 | 12 | 91 | 7.74 | 6.54 | 16 | – | – | – |
| Fc1cc(F)cc(CNc2cnc3[nH]cc(C4=CCCCC4)c3c2)c1 | 74 | 99 | 6.49 | 5.61 | – | – | – | – |
| COc1cncc(-c2c[nH]c3ncc(NC(=O)c4ccc(Cl)cc4OC)cc23)c1 | 8 | 95 | 8.30 | 5.46 | 700 | 101 | 15 | – |
| O=C(Nc1cnc2[nH]cc(-c3cncc(F)c3)c2c1)c1ccco1 | 64 | 88 | 6.41 | 5.52 | – | – | – | – |
| c1cncc(-c2c[nH]c3ncc(NCc4ccc(N5CCOCC5)cc4)cc23)c1 | 28 | 83 | 7.34 | 5.77 | 36.9 | – | – | – |
| COc1ccc(-c2cnc3ccc(NC4CCCC4)cn23)cc1 | 99 | 126 | – | – | – | – | – | – |
| Nc1ncc(-c2c[nH]c3ncc(NCc4cc(F)cc(F)c4)cc23)cn1 | 26 | 102 | 7.12 | 6.23 | 7.8 | – | – | – |

| Compound | Activity [1] [%] | Activity [2] [%] | pIC50 [3] | pIC50 [4] | Selectivity Index [5] | half-life at 10 µM [6] [min] | CLH [7] [mL/min/g] | inhibition [8] |
| --- | --- | --- | --- | --- | --- | --- | --- | --- |
| COc1cncc(-c2c[nH]c3ncc(NCc4cc(F)cc(F)c4)cc23)c1 | 9 | 81 | 7.80 | 5.88 | 82.7 | 32.1 | 88.7 | – |
| O=C(Nc1cc(C(F)(F)F)cc(C(F)(F)F)c1)Nc1cnc2[nH]cc(-c3cncc(F)c3)c2c1 | 88 | 106 | 5.73 | 5.25 | – | – | – | – |
| Fc1cccc(CNc2cnc3[nH]cc(-c4cccnc4)c3c2)c1 | 4 | 98 | 7.82 | 6.32 | 31.6 | – | – | – |
| O=C(Nc1cnc2[nH]cc(-c3cccnc3)c2c1)c1ccc(F)cc1 | 30 | 90 | 7.51 | 5.65 | 72.6 | – | – | – |
| O=C(Nc1cnc2[nH]cc(-c3cccnc3)c2c1)c1ccc(C(F)(F)F)c(F)c1 | 45 | 87 | 7.05 | 5.44 | 41 | – | – | – |
| Fc1cc(F)cc(CNc2cnc3[nH]cc(-c4cc5ccccc5s4)c3c2)c1 | 65 | 108 | 6.60 | 5.66 | – | – | – | – |
| Fc1cccc(/C=N/c2cnc3[nH]cc(-c4cncc(F)c4)c3c2)c1 | 61 | 74 | 6.34 | 6.19 | – | – | – | – |
| CN1CCN(c2ccc(CNc3cnc4[nH]cc(-c5cccnc5)c4c3)cc2)CC1 | 9 | 85 | 7.89 | 5.76 | 135 | – | – | – |
| O=C(Nc1cnc2[nH]cc(-c3cncc(F)c3)c2c1)c1ccc(F)cc1 | 37 | 83 | 7.19 | 5.54 | 45.3 | > 120 | < 12 | – |
| O=S(=O)(Nc1cnc2[nH]cc(-c3cncc(F)c3)c2c1)c1ccc(F)cc1 | 70 | 94 | 6.18 | 5.44 | – | – | – | – |
| FC(F)(F)c1cccc(CNc2cnc3[nH]cc(-c4cccnc4)c3c2)c1 | 18 | 96 | 7.35 | 6.16 | 15.3 | – | – | – |
| Nc1ccc(-c2cnc3[nH]cc(-c4ccc(O)cc4)c3c2)cc1 | – | – | 7.47 | – | 1.3 | – | – | Active |
| COc1ccc(-c2cnc3ccc(NCc4ccc(N(C)C)cc4)cn23)cc1 | 103 | 101 | – | – | – | – | – | – |
| COc1cncc(-c2c[nH]c3ncc(NCc4ccc(N5CCOCC5)cc4)cc23)c1 | 16 | 85 | 7.52 | 5.72 | 63.2 | 21.2 | 65.4 | – |
| COc1ccc(-c2c[nH]c3ncc(NCc4cc(F)cc(F)c4)cc23)cc1 | 3 | 40 | 7.82 | 7.01 | 6.5 | – | – | – |
| CCN(CC)c1ccc(CNc2cnc3[nH]cc(-c4cccnc4)c3c2)cc1 | 33 | 98 | 7.15 | 5.81 | 22.4 | – | – | – |
| Fc1cc(F)cc(CNc2cnc3[nH]cc(-c4ccc(C(F)(F)F)cc4)c3c2)c1 | 80 | 108 | 6.34 | 6.12 | 1.7 | – | – | – |
| CCCc1ccc(-c2c[nH]c3ncc(NCc4cc(F)cc(F)c4)cc23)cc1 | 85 | 111 | – | – | – | – | – | – |
| Nc1ccc(-c2c[nH]c3ncc(NCc4cc(F)cc(F)c4)cc23)cc1 | 36 | 101 | 7.05 | 6.25 | 6.3 | – | – | – |
| CC(C)c1cccc(CNc2cnc3[nH]cc(-c4cccnc4)c3c2)c1 | 16 | 108 | 7.64 | 5.62 | 117 | – | – | – |
